Measured values taken from US9029346B1, “Irreversible inhibitors of DNA polymerase beta” (The Johns Hopkins University, priority 2013, dated 2015).

How the values were obtained:
[1] = target: Pol β (Homo sapiens, UniProt P06746); format: biochemical
Experimental: It is worth noting that the well should be full to obtain accurate fluorescence data (approximately 380 μL). […] To determine the polymerase activity in the presence of each inhibitor, a solution of 13 (3.8 μL, 5 μM) and dTTP (3.8 μL, 10 mM) were also added (to make final [13]=50 nM and 100 μM of dTTP). The plates were immediately placed in the microtiter plate reader and the measurements were recorded.
It is worth noting that the well should be full in order to get accurate fluorescence data (approximately 380 μL). The solutions of inhibitors (40×) in acetonitrile obtained after pentenyl deprotection (10 μL) were transferred to the wells containing Pol β and incubated for 20 min. To determine the polymerase activity of enzyme in the presence of each inhibitor, solutions of ternary complex 13 (3.8 μL, 5 μM) and dTTP (3.8 μL, 10 mM) were also added (to make final 50 nM of 13 and 100 μM of dTTP). The plates were placed immediately in the microtiter plate reader Cary Eclipse Varian and the measurements started.
The inhibitor solution (40×, 10 μL) was added to the first well and preincubated for 20 min. At this time, the same portion of inhibitor was added to the second well. […] Once the inhibitor was added to the fifth well, solutions of ternary complex 13 (3.8 pit, 5 μM) and dTTP (3.8 μL, 10 mM) were also added and the fluorescence measurement was started immediately.

[2] = tested on: Klenow fragment of DNA polymerase 1; experiment: Klenow exo- strand displacement synthesis fluorescence assay (selectivity); format: biochemical, E. coli; details: 10 μM, same conditions as Pol β, FIG. 9
Experimental: […]. The volume of the solution in each well is approximately 400 μL. Pol β (final concentration, 10 nM) or Klenow exo-(final concentration 5 nM) is added and the measurement of the fluorescence is started immediately.
More than one dozen polymerases exist in a human cell. Because there is not access to each of these, the Klenow fragment of DNA polymerase 1 from E. coli was used as a primitive test of the inhibitor's (3a) selectivity. […]. However, the efficacy of the 1,4-dicarbonyl containing inhibitor (1a) was compromised by thiols, presumably due to nucleophilic addition (FIG. 10). […]

[3] = tested on: DU145 prostate cancer cells; format: cell-based; details: for DU145 cells surviving treatment: 40 μM, FIG. 13A
Experimental: DU 145 cells were obtained from the American Type Culture Collection (ATCC, HTB-81, Manassas, Va.) and maintained in RPMI 1640 culture medium (Sigma-Aldrich R8758, St. Louis, Mo.), supplemented with 10% fetal bovine serum (Sigma-Aldrich F6178, St. Louis, Mo.). Cultures were grown at 37° C. in a humidified atmosphere of 5% carbon dioxide without any antibiotics and subcultured when they reached confluence. For clonogenic survival analysis, the appropriate number of cells were grown in standard 6-well tissue culture dishes in the growth media (2 mL per well). After 2 days, the cells were treated with Pol β inhibitors (3a or 18) by addition of sterile stock solution in water directly to the growth media to the desired final concentrations. Cells were treated similarly with methyl methanesulfonate (MMS, Sigma-Aldrich, St. Louis, Mo.). For combined treatments, 18 was added to the cells first followed by MMS. The compounds remained present throughout the entire assay. Two weeks after the treatment, the cells were fixed and stained with 0.2% solution of crystal violet in 50% methanol. Colonies with ≧50 cells were then counted. All treatments were carried out in triplicate.
[…]. Consequently, DU145 cell survival was measured as a function of MMS concentration, without and with 18 at a concentration (20 μM) where the proinhibitor itself results in approximately 45% cell death. […] […].

[4] = tested on: DU145 lysate lyase activity; experiment: Lyase activity of DU145 cell extracts (lysates) on 3′-32P-15
Experimental: The aliquots were kept on ice for 1 h before mixing with loading buffer (5 μL). The samples were analyzed by 20% denaturing PAGE and quantified using a phosphorimager.
Cells were harvested by mild trypsinzation. The cells were then washed three times with phosphate buffered saline. Cell pellets were suspended in 1× Passive Lysis Buffer (PBL, Promega Corporation, E1941, Madison, Wis.) at concentration of 1×10^7 cells per mL and frozen in aliquots at −80° C. Protein concentrations were determined by Bio-Rad protein assay dye (Bio-Rad, 500-0006, Hercules, Calif.) according to the manufacturer's protocol and using bovine serum albumin as a standard.

[5] = target: Pol β lyase activity (Homo sapiens, UniProt P06746); experiment: Pol β lyase (dRPase) activity on 3′-32P-15 by gel electrophoresis
Experimental: The ability of 1a to inhibit Pol β's dRPase activity was examined using 3′-^32P-15 in which the oligonucleotide containing dRP was labeled.
The DNA substrate was added to the reaction following preincubation of 1a with Pol β and subsequent 100-fold dilution. The lyase reaction was monitored by gel electrophoresis.

[6] = tested on: mouse embryonic fibroblast cell lysates lyase activity; experiment: Lyase (dRPase) activity of mouse embryonic fibroblast lysates on 3′-32P-15; format: biochemical; details: for Rate of product formation: inhibitor + (18, 50 μM), 32 μg protein
[7] = Conversion of bisacetate proinhibitor to 3a in DU145 lysate (TLC analysis); format: in vitro ADME

In the case of `COc1cc(Cl)c(/C=N/OC2C[C@H](n3cc(C)c(=O)[nH]c3=O)O[C@@H]2COP(=O)(OC)OCC2CC(O)OC2O)c(Cl)c1O` (stereo partly shown) [2a], the “effect on Pol β activity in strand displacement assay” value [1] is reported as “comparable inhibition activity as 1a”.

In the case of `COc1cc(Cl)c(/C=N/OC2C[C@H](n3cc(C)c(=O)[nH]c3=O)O[C@@H]2COP(=O)(O)OCC2CC(O)OC2O)c(Cl)c1O` (stereo partly shown) [3a], the “effect on Klenow fragment's activity” value [2] is reported as “no effect”, the “DU145 cells surviving treatment” value [3] is reported as 12% and the lyase activity remaining ([4]; 150 μM) is reported as “more than 30%”.

In the case of `COc1cc(Cl)c(/C=N/OC2C[C@H](n3cc(C)c(=O)[nH]c3=O)O[C@@H]2COP(=O)(OC)OCCC=O)c(Cl)c1O` (stereo partly shown) [compound 16], the “effect on Pol β lyase activity” value [5] is reported as “had no effect”.

In the case of `COc1cc(Cl)c(/C=N/OC2C[C@H](n3cc(C)c(=O)[nH]c3=O)O[C@@H]2COP(=O)(O)OCC2CC(OC(C)=O)OC2OC(C)=O)c(Cl)c1O` (stereo partly shown) [compound 18], the “Rate of product formation” value ([6]; Pol β - lysate) is reported as 5.5 ± 1.5 ×10^−1 % · min^−1, the “Rate of product formation” value ([6]; Pol β wt lysate) is reported as 9.2 ± 2.4 ×10^−1 % · min^−1 and the “reduction of lyase activity” value ([6]; Pol β- cell lysates, 18 at 50 μM) is reported as “less than 30%”. The “Rate of product formation” value ([6]; Pol β/λ - lysate) was 11.0 ± 4.0 ×10^−1 % · min^−1, the “Rate of product formation” value ([6]; Pol λ - lysate) was 9.1 ± 2.3 ×10^−1 % · min^−1 and the “Rate of product formation” value ([6]; Pol λ wt lysate, aliquots at 2, 5, 10 min) was 12.4 ± 3.2 ×10^−1 % · min^−1. The “effect on lyase activity versus wild type cells” value ([6]; cells lacking Pol λ (Pol λ-), p=0.05) was “statistically indistinguishable”, the “effect on lyase activity versus Pol β- cells” value ([6]; double knock-out (Pol β-/Pol λ-) cells) was “within experimental error” and the “reduction of the rate of the lyase reaction” value ([6]; lysates from wild type cells, 18 at 50 μM) was ~2 fold. The “effect on Pol β lyase activity” value [5] was “had no effect”, the “MMS concentration at and above which clear potentiation of cytotoxicity is seen” value [3] was ≥ 0.2 mM and the cell death ([3]; 20 μM, proinhibitor alone) was “approximately 45%”. For the same compound, the “DU145 cells surviving treatment” value [3] was “approximately 0.01%”, the “time for conversion of bisacetate to 3a” value [7] was ≤ 5 min and the “inhibition of DU145 lysate lyase activity” value ([4]; 150 μM) was “Almost complete inhibition”. For the same compound, the “preincubation time by which inactivation was complete” value ([4]; 18 at 50 μM, preincubation varied 5-60 min) was ≤ 15 min and the “lyase activity inhibition compared with 3a” value ([4]; 1 h preincubation, FIG. 11) was “significantly greater”.
